The subject of experiment [1] is human APCs (myeloid cells). Put plainly: Cytokine secretion from human APCs / myeloid cells (cell free supernatants). The following applies: 18 hours. In kind it is cell-based. On the procedure: After 18 hours, cell free supernatants were analyzed for cytokine secretion via cytokine bead arrays; n=3. P-values≤0.05 depicted by *, P-values≤0.01 depicted by **, P-values≤0.001 depicted by ***, P-values≤0.0001 depicted by ****.
2×10^5 APCs were incubated with or without 6.5×10^5 autologous or allogeneic CFSE-labeled tumor cells in 96-well plates (Corning) containing IMDM medium (Gibco) supplemented with 10% fetal bovine serum, 100 U/mL penicillin, 100 μg/mL streptomycin, 2 mM L-glutamine, sodium pyruvate, non-essential amino acids, 50 μM 2-ME and, where indicated, various concentrations of anti-tumor antibody and the indicated adjuvants. […]
While the expression of T cell stimulatory molecules such as CD40, CD86 and HLA-DR is necessary for effective T cell activation, APCs also influence the nature of the ensuing immune response through the secretion of cytokines. Therefore, the capacity of immunoconjugates to elicit cytokine secretion in human APCs following stimulation was investigated as described above.
The capacity of these immunoconjugates to elicit cytokine secretion in human APCs following stimulation was investigated as described in Example 3 above.
2×10^5 APCs were incubated with or without 6.5×10^5 allogeneic CFSE-labeled tumor cells in 96-well plates (Corning) containing IMDM medium (Gibco) supplemented with 10% fetal bovine serum, 100 U/mL penicillin, 100 μg/mL streptomycin, 2 mM L-glutamine, sodium pyruvate, non-essential amino acids and, where indicated, various concentrations of unconjugated CD20 antibody, and immunoconjugates of the invention were prepared according to the examples above. […]

Experiment [2] deals with T1, recombinant human CD64 protein (Homo sapiens, UniProt P12314).
T1 construct: purchased R&D Systems
T1 sequence (P12314 16-374): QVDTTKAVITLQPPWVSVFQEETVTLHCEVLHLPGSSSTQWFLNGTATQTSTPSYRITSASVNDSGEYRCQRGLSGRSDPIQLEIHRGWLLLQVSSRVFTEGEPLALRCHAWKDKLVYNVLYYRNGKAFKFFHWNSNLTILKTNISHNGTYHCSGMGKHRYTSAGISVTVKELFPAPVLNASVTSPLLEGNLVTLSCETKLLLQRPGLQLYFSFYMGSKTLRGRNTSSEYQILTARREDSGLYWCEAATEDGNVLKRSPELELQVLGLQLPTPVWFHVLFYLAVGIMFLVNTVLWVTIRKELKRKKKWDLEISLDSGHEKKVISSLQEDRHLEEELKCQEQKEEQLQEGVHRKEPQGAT
In words: ELISA binding to CD64. The following applies: titration. The protocol: Maxysorp ELISA plates were coated overnight with 1.5 ug/ml recombinant human CD64 protein (R&D Systems). Plates were blocked with PBS containing 1% BSA, and incubated with a titration of Rituximab or Rituximab immunoconjugates (Rituximab BB-01). Bound antibodies were detected with Peroxidase conjugated AffiniPure F(ab′)2 Fragment Goat Anti-Human IgG (Jackson) using TMB color development and absorbance at 450 nm was measured after stopping the reaction.
For orientation: An ELISA detects its analyte on a solid surface through an enzyme-linked reagent.

The target of experiment [3] is protein A (Staphylococcus aureus, UniProt P38507). The note with it: 50 ug/ml in PBS, overnight, SDS-PAGE of beads and supernatants. The protocol:
Beads were pelleted by centrifugation, supernatant was removed, and residual liquid was removed from the beads using a fine pipette tip. Non-reducing Laemmli sample buffer (100 ul) was added to the beads. Beads and supernatants were heated to 90° C. for 5 minutes and equal fractions were analyzed by SDS-PAGE (4-12% NUPAGE gel, MOPS buffer) followed by staining with Coomassie (GelCode™ Blue, ThermoFisher). Molecular weight standard is SeeBlue® Plus 2 marker (ThermoFisher LC5925).

The subject of experiment [4] is human APCs (myeloid cells). Put plainly: APC-tumor co-culture / myeloid cell stimulation, surface markers by flow cytometry. The format is cell-based. The following applies: 18 hours of stimulation. The source says:
Human antigen presenting cells (APCs) were negatively selected from human peripheral blood mononuclear cells obtained from healthy blood donors (Stanford Blood Center) by density gradient centrifugation using a RosetteSep Human Monocyte Enrichment Cocktail (Stem Cell Technologies) containing monoclonal antibodies against CD2, CD3, CD8, CD19, CD56, CD66b and CD235a. Immature APCs were subsequently purified to >97% purity via negative selection using an EasySep Human Monocyte Enrichment Kit without CD16 depletion containing monoclonal antibodies against CD2, CD3, CD19, CD20, CD56, CD66b, CD123 and CD235a.
Tumor cells were resuspended in PBS with 0.1% fetal bovine serum (FBS) at 1 to 10×10^6 cells/mL. Cells were subsequently incubated with 2 μM CFSE to yield a final concentration of 1 μM. The reaction was ended after 2 minutes via the addition of 10 mL complete medium with 10% FBS and washed once with complete medium. Cells were either fixed in 2% paraformaldehyde and washed three times with PBS or left unfixed prior to freezing the cells in 10% DMSO, 20% FBS and 70% medium.
2×10^5 APCs were incubated with or without 6.5×10^5 autologous or allogeneic CFSE-labeled tumor cells in 96-well plates (Corning) containing IMDM medium (Gibco) supplemented with 10% fetal bovine serum, 100 U/mL penicillin, 100 μg/mL streptomycin, 2 mM L-glutamine, sodium pyruvate, non-essential amino acids, 50 μM 2-ME and, where indicated, various concentrations of anti-tumor antibody and the indicated adjuvants. Cells and cell-free supernatants were analyzed after 18 hours via flow cytometry.
Human antigen presenting cells (APCs) were negatively selected from human peripheral blood mononuclear cells obtained from healthy blood donors (Stanford Blood Center) by density gradient centrifugation using a RosetteSep Human Monocyte Enrichment Cocktail (Stem Cell Technologies) containing monoclonal antibodies against […]. Immature APCs were subsequently purified to >97% purity via negative selection using an EasySep Human Monocyte Enrichment Kit without CD16 depletion containing monoclonal antibodies against CD14, CD16, CD40, CD86, CD123, and HLA-DR.
2×10^5 APCs were incubated with or without 6.5×10^5 autologous or allogeneic CFSE-labeled tumor cells in 96-well plates (Corning) containing IMDM medium (Gibco) supplemented with 10% fetal bovine serum, 100 U/mL penicillin, 100 μg/mL streptomycin, 2 mM L-glutamine, sodium pyruvate, non-essential amino acids, 50 μM 2-ME and, where indicated, various concentrations of antibody. Cells and cell-free supernatants were analyzed after 18 hours via flow cytometry.
2×10^5 APCs were incubated with or without 6.5×10^5 allogeneic CFSE-labeled tumor cells in 96-well plates (Corning) containing IMDM medium (Gibco) supplemented with 10% fetal bovine serum, 100 U/mL penicillin, 100 μg/mL streptomycin, 2 mM L-glutamine, sodium pyruvate, non-essential amino acids and, where indicated, various concentrations of unconjugated CD20 antibody, and immunoconjugates of the invention were prepared according to the examples above. Cells and cell-free supernatants were analyzed after 18 hours via flow cytometry or ELISA.
Background: Flow cytometry measures light scatter and fluorescence of single cells or particles in a stream.

In the case of Rituximab [reference compound], the “cytokine secretion (overall)” value in experiment [1] is “do not”. Moreover, the “binding to CD64” value in experiment [2] was “comparable binding to CD64”. Further, the “binding to protein A” value in experiment [3] is “bind to protein A”. The “CD86 upregulation on myeloid cells” value in experiment [4] (compared with the corresponding unconjugated antibody unless the value names another comparator) is given as “the control does not”. The “APC / myeloid / dendritic cell activation (overall)” value in experiment [4] (listed as unconjugated CD20 antibody) was “do not”.
